In patent US4997454A, “Method for making uniformly-sized particles from insoluble compounds” (The University of Rochester, priority 1989, dated 1991):
Values after ≈ are worked out from the molar mass of the structure shown.

What does the source list for `O=C1NC(=O)[C@H]2[C@H]3C=C[C@@H]([C@@H]12)[C@@H]1[C@H]2C(=O)NC(=O)[C@H]2[C@H]31` [mitindomide]?
solubility (solubility; absolute ethanol, organic solvent or mixture): < 4 µg/mL; solubility (solubility; water): 70 µg/mL (≈ 257 µM)

For `CCOC(=O)c1c(I)cc(I)c(NC(=O)CCCCC(=O)Nc2c(I)cc(I)c(C(=O)OCC)c2I)c1I` [IDE, iodipamide ethyl ester], which solubility in water is on record?
Its solubility in water is 10^-5 M.
